Experimental data from the CheMixHub ionic liquid set.
± gives the uncertainty stated by the source.

Assay: xn = mol fraction of the nth substance listed
Conditions: 101.3 kPa; for electrical conductivity: frequency 0.001 MHz
[1] = 298.15 K, x1 = 0.0001802, x2 = 1.802e-05
[2] = 298.15 K, x1 = 0.0001803, x2 = 5.405e-05
[3] = 298.15 K, x1 = 0.0001803, x2 = 9.008e-05
[4] = 298.15 K, x1 = 0.0004504, x2 = 1.801e-05
[5] = 298.15 K, x1 = 0.0004505, x2 = 5.403e-05
[6] = 298.15 K, x1 = 0.0004507, x2 = 9.005e-05
[7] = 298.15 K, x1 = 0.0007204, x2 = 1.801e-05
[8] = 298.15 K, x1 = 0.0007206, x2 = 5.402e-05
[9] = 298.15 K, x1 = 0.0007209, x2 = 9.003e-05
[10] = 298.15 K, x1 = 0.0009903, x2 = 1.8e-05
[11] = 298.15 K, x1 = 0.0009906, x2 = 5.4e-05
[12] = 298.15 K, x1 = 0.0009909, x2 = 9e-05
[13] = 298.15 K, x1 = 0.00126, x2 = 1.8e-05
[14] = 298.15 K, x1 = 0.00126, x2 = 5.399e-05
[15] = 298.15 K, x1 = 0.001261, x2 = 8.998e-05
[16] = 298.15 K, x1 = 0.00153, x2 = 1.799e-05
[17] = 298.15 K, x1 = 0.00153, x2 = 5.397e-05
[18] = 298.15 K, x1 = 0.001531, x2 = 8.995e-05
[19] = 308.15 K, x1 = 0.0001802, x2 = 1.802e-05
[20] = 308.15 K, x1 = 0.0001803, x2 = 5.405e-05
[21] = 308.15 K, x1 = 0.0001803, x2 = 9.008e-05
[22] = 308.15 K, x1 = 0.0004504, x2 = 1.801e-05
[23] = 308.15 K, x1 = 0.0004505, x2 = 5.403e-05
[24] = 308.15 K, x1 = 0.0004507, x2 = 9.005e-05
[25] = 308.15 K, x1 = 0.0007204, x2 = 1.801e-05
[26] = 308.15 K, x1 = 0.0007206, x2 = 5.402e-05
[27] = 308.15 K, x1 = 0.0007209, x2 = 9.003e-05
[28] = 308.15 K, x1 = 0.0009903, x2 = 1.8e-05
[29] = 308.15 K, x1 = 0.0009906, x2 = 5.4e-05
[30] = 308.15 K, x1 = 0.0009909, x2 = 9e-05
[31] = 308.15 K, x1 = 0.00126, x2 = 1.8e-05
[32] = 308.15 K, x1 = 0.00126, x2 = 5.399e-05
[33] = 308.15 K, x1 = 0.001261, x2 = 8.998e-05
[34] = 308.15 K, x1 = 0.00153, x2 = 1.799e-05
[35] = 308.15 K, x1 = 0.00153, x2 = 5.397e-05
[36] = 308.15 K, x1 = 0.001531, x2 = 8.995e-05
[37] = 318.15 K, x1 = 0.0001802, x2 = 1.802e-05
[38] = 318.15 K, x1 = 0.0001803, x2 = 5.405e-05
[39] = 318.15 K, x1 = 0.0001803, x2 = 9.008e-05
[40] = 318.15 K, x1 = 0.0004504, x2 = 1.801e-05
[41] = 318.15 K, x1 = 0.0004505, x2 = 5.403e-05
[42] = 318.15 K, x1 = 0.0004507, x2 = 9.005e-05
[43] = 318.15 K, x1 = 0.0007204, x2 = 1.801e-05
[44] = 318.15 K, x1 = 0.0007206, x2 = 5.402e-05
[45] = 318.15 K, x1 = 0.0007209, x2 = 9.003e-05
[46] = 318.15 K, x1 = 0.0009903, x2 = 1.8e-05
[47] = 318.15 K, x1 = 0.0009906, x2 = 5.4e-05
[48] = 318.15 K, x1 = 0.0009909, x2 = 9e-05
[49] = 318.15 K, x1 = 0.00126, x2 = 1.8e-05
[50] = 318.15 K, x1 = 0.00126, x2 = 5.399e-05
[51] = 318.15 K, x1 = 0.001261, x2 = 8.998e-05
[52] = 318.15 K, x1 = 0.00153, x2 = 1.799e-05
[53] = 318.15 K, x1 = 0.00153, x2 = 5.397e-05
[54] = 318.15 K, x1 = 0.001531, x2 = 8.995e-05

## O=C([O-])C1=NN(c2ccc(S(=O)(=O)[O-])cc2)C(=O)C1N=Nc1ccc(S(=O)(=O)[O-])cc1.[Na+].[Na+].[Na+] (stereo not drawn) + C[N+](C)(C)Cc1ccccc1.[Cl-] + O
[1]
  electrical conductivity: 0.132 ± 0.014 S/m
  viscosity: 0.905 ± 0.045 mPa·s
[2]
  electrical conductivity: 0.142 ± 0.015 S/m
  viscosity: 0.923 ± 0.045 mPa·s
[3]
  electrical conductivity: 0.168 ± 0.017 S/m
  viscosity: 0.941 ± 0.045 mPa·s
[4]
  electrical conductivity: 0.231 ± 0.023 S/m
  viscosity: 0.923 ± 0.045 mPa·s
[5]
  electrical conductivity: 0.254 ± 0.026 S/m
  viscosity: 0.944 ± 0.045 mPa·s
[6]
  electrical conductivity: 0.303 ± 0.031 S/m
  viscosity: 0.962 ± 0.045 mPa·s
[7]
  electrical conductivity: 0.331 ± 0.033 S/m
  viscosity: 0.938 ± 0.045 mPa·s
[8]
  electrical conductivity: 0.359 ± 0.036 S/m
  viscosity: 0.962 ± 0.045 mPa·s
[9]
  electrical conductivity: 0.419 ± 0.043 S/m
  viscosity: 0.983 ± 0.045 mPa·s
[10]
  electrical conductivity: 0.421 ± 0.042 S/m
  viscosity: 0.952 ± 0.045 mPa·s
[11]
  electrical conductivity: 0.463 ± 0.047 S/m
  viscosity: 0.977 ± 0.045 mPa·s
[12]
  electrical conductivity: 0.57 ± 0.058 S/m
  viscosity: 1 ± 0.045 mPa·s
[13]
  electrical conductivity: 0.519 ± 0.052 S/m
  viscosity: 0.964 ± 0.045 mPa·s
[14]
  electrical conductivity: 0.583 ± 0.059 S/m
  viscosity: 0.992 ± 0.045 mPa·s
[15]
  electrical conductivity: 0.684 ± 0.069 S/m
  viscosity: 1.015 ± 0.045 mPa·s
[16]
  electrical conductivity: 0.641 ± 0.065 S/m
  viscosity: 0.977 ± 0.045 mPa·s
[17]
  electrical conductivity: 0.705 ± 0.071 S/m
  viscosity: 1.007 ± 0.045 mPa·s
[18]
  electrical conductivity: 0.812 ± 0.082 S/m
  viscosity: 1.032 ± 0.045 mPa·s
[19]
  electrical conductivity: 0.158 ± 0.017 S/m
  viscosity: 0.747 ± 0.044 mPa·s
[20]
  electrical conductivity: 0.177 ± 0.018 S/m
  viscosity: 0.769 ± 0.044 mPa·s
[21]
  electrical conductivity: 0.187 ± 0.019 S/m
  viscosity: 0.789 ± 0.045 mPa·s
[22]
  electrical conductivity: 0.276 ± 0.028 S/m
  viscosity: 0.764 ± 0.044 mPa·s
[23]
  electrical conductivity: 0.317 ± 0.032 S/m
  viscosity: 0.788 ± 0.045 mPa·s
[24]
  electrical conductivity: 0.331 ± 0.033 S/m
  viscosity: 0.809 ± 0.045 mPa·s
[25]
  electrical conductivity: 0.392 ± 0.04 S/m
  viscosity: 0.778 ± 0.044 mPa·s
[26]
  electrical conductivity: 0.447 ± 0.045 S/m
  viscosity: 0.803 ± 0.045 mPa·s
[27]
  electrical conductivity: 0.477 ± 0.048 S/m
  viscosity: 0.826 ± 0.045 mPa·s
[28]
  electrical conductivity: 0.512 ± 0.052 S/m
  viscosity: 0.791 ± 0.044 mPa·s
[29]
  electrical conductivity: 0.588 ± 0.059 S/m
  viscosity: 0.818 ± 0.045 mPa·s
[30]
  electrical conductivity: 0.614 ± 0.062 S/m
  viscosity: 0.842 ± 0.045 mPa·s
[31]
  electrical conductivity: 0.638 ± 0.064 S/m
  viscosity: 0.803 ± 0.045 mPa·s
[32]
  electrical conductivity: 0.716 ± 0.072 S/m
  viscosity: 0.832 ± 0.045 mPa·s
[33]
  electrical conductivity: 0.739 ± 0.074 S/m
  viscosity: 0.858 ± 0.045 mPa·s
[34]
  electrical conductivity: 0.753 ± 0.076 S/m
  viscosity: 0.815 ± 0.045 mPa·s
[35]
  electrical conductivity: 0.841 ± 0.084 S/m
  viscosity: 0.847 ± 0.045 mPa·s
[36]
  electrical conductivity: 0.88 ± 0.088 S/m
  viscosity: 0.873 ± 0.045 mPa·s
[37]
  electrical conductivity: 0.197 ± 0.021 S/m
  viscosity: 0.629 ± 0.044 mPa·s
[38]
  electrical conductivity: 0.213 ± 0.022 S/m
  viscosity: 0.646 ± 0.044 mPa·s
[39]
  electrical conductivity: 0.228 ± 0.023 S/m
  viscosity: 0.666 ± 0.044 mPa·s
[40]
  electrical conductivity: 0.355 ± 0.036 S/m
  viscosity: 0.644 ± 0.044 mPa·s
[41]
  electrical conductivity: 0.388 ± 0.039 S/m
  viscosity: 0.664 ± 0.044 mPa·s
[42]
  electrical conductivity: 0.413 ± 0.042 S/m
  viscosity: 0.685 ± 0.044 mPa·s
[43]
  electrical conductivity: 0.498 ± 0.05 S/m
  viscosity: 0.658 ± 0.044 mPa·s
[44]
  electrical conductivity: 0.535 ± 0.054 S/m
  viscosity: 0.679 ± 0.044 mPa·s
[45]
  electrical conductivity: 0.558 ± 0.056 S/m
  viscosity: 0.701 ± 0.044 mPa·s
[46]
  electrical conductivity: 0.641 ± 0.064 S/m
  viscosity: 0.67 ± 0.044 mPa·s
[47]
  electrical conductivity: 0.677 ± 0.068 S/m
  viscosity: 0.693 ± 0.044 mPa·s
[48]
  electrical conductivity: 0.723 ± 0.072 S/m
  viscosity: 0.717 ± 0.044 mPa·s
[49]
  electrical conductivity: 0.777 ± 0.078 S/m
  viscosity: 0.681 ± 0.044 mPa·s
[50]
  electrical conductivity: 0.826 ± 0.083 S/m
  viscosity: 0.707 ± 0.044 mPa·s
[51]
  electrical conductivity: 0.863 ± 0.086 S/m
  viscosity: 0.731 ± 0.044 mPa·s
[52]
  electrical conductivity: 0.915 ± 0.092 S/m
  viscosity: 0.693 ± 0.044 mPa·s
[53]
  electrical conductivity: 0.972 ± 0.097 S/m
  viscosity: 0.72 ± 0.044 mPa·s
[54]
  electrical conductivity: 1.01 ± 0.1 S/m
  viscosity: 0.746 ± 0.044 mPa·s
